For series [1], the system named is normal human skin. The settings on record: topically applied; cited from earlier work.
In series [2] the test system is cytosol extracts of human keratinocytes. As to conditions: human epidermal cells; specific inhibitors of alcohol metabolism or excess of ethanol.
Method: We have measured the conversion of retinol to retinoic acid. We have also measured the enzymatic oxidation-reduction of retinal in human epidermal cell extracts in vitro (HPLC analysis of the products obtained by incubation of cytosol extracts with ^3 H-labeled RAL and ROL).
(§1) The HPLC analyses of the retinoids are carried out by the following technique:
(§2) A 100 μl aliquot of the cytosol fraction of keratinocytes is incubated with 600 μM (^3 H) retinol or (^3 H) retinal for 1 hour.
(§3) 5 μl of internal standard solution containing 4-oxoretinoic acid, all-trans-retinoic acid, 13-cis-retinoic acid, retinol and retinal are subsequently added to the reaction medium.
(§4) The radioactive material is then extracted with 3×1 ml of hexane.
(§5) The organic phase is collected and completely evaporated using a stream of nitrogen gas.
(§6) The residue is subsequently taken up in 50 μl of acetonitrile and analysed on an HPLC column.
(§7) The HPLC system consists of a VARIAN 5000 apparatus equipped with an ODS-Ultrasyl reverse-phase column (10 μm, 25×0.4 cm).
(§8) The unlabeled retinoids are detected by their absorbance measured at 340 nm. 600 μl fractions are also collected using a fraction collector, and their radio-activity is measured with a scintillation counter after adding 4 ml of Pico-fluor.
Series [3] relates to protein extract of psoriasis plaques / cytosol extracts of normal human skin. Format: in vitro ADME. An excerpt: Furthermore, the Applicant has shown that the protein extract of psoriasis plaques was also capable of converting retinol to retinoic acid, but with a lower activity (0.33+0.07 pmol/h/mg) than differentiated keratinocytes.
These differences in the conversion activity may be attributed to the differences in biological activity of the tissues studied or to their different state of differentiation.

In the next series the test system is seborrheic dermatitis. The experiment in a line: application in the case of seborrheic dermatitis. As to conditions: 0.05% retinal, topical, daily; after treatment for one month. Format: in vivo, human. How it is done: This test was carried out on 10 subjects displaying the clinical signs of seborrheic dermatitis.
A topical application containing 0.05% of retinal was used in daily application for one month.

Series [4] concerns human epidermal cell extracts.
Method: (§9) We have also measured the enzymatic oxidation-reduction of retinal in human epidermal cell extracts in vitro (HPLC analysis of the products obtained by incubation of cytosol extracts with ^3 H-labeled RAL and ROL).
as §1, §2, §3, §4, §5, §6, §7
(§10) The isocratic elution system consists of a mixture of solvents composed of 71% acetonitrile, 23% of ammonium acetate buffer (50 mM, pH 7) and 6% tetrahydrofuran, with a flow rate of 2.4 ml/min.
as §8
Series [5] concerns extracts of normal human skin and of the psoriasis plaque.
Method: as §9, §1, §2, §3, §4, §5, §6, §7, §10, §8
A further series deals with psoriasis plaques. As to conditions: for regression of the lesion score: with occlusion.
Another series concerns rosacea. The series is described as follows: application in the case of rosacea. Format: in vivo, human. The settings on record: 0.1% retinal, topical, daily. How it is done: This test was carried out on 10 subjects displaying the clinical signs of rosacea. A topical application containing 0.1% of retinal was used in daily application for 3 months.
Series [6] concerns normal human skin.
From the text: This test, carried out on 30 healthy volunteers, was intended to evaluate the existance of a biological effect and the tolerance after topical application of retinal.
Three concentrations, 1.0%, 0.1% and 0.05%, were used, in daily covered applications for at least 15 days and up to 3 months in 10 subjects.

Read-outs that look alike come from different tables or passages of the source.

Consider `CC1=C(/C=C/C(C)=C/C=C/C(C)=C/C(=O)O)C(C)(C)CCC1` [retinoic acid], for which the “topical concentration at which dermatitis caused by the retinoids is observed” value in the series with normal human skin [1] is recorded as no less than 0.01%.

Turning to `Cc1cn[nH]c1` [4-methylpyrazole], the “effect on the production of retinoic acid from retinol” value (from here on “effect on the production”) in [2] is recorded as “not affected”.

Take `CC1=C(/C=C/C(C)=C/C=C/C(C)=C/CO)C(C)(C)CCC1` [retinol]: in series [3], the “activity of converting retinol to retinoic acid” value was 0.33+0.07 pmol/h/mg and the “conversion of retinol to retinoic acid” value is “no measurable degree of conversion”.

Regarding `CC1=C(/C=C/C(C)=C/C=C/C(C)=C/C=O)C(C)(C)CCC1` [retinal], in the series on seborrheic dermatitis, the “subjects left with almost no characteristic signs of seborrheic dermatitis” value was 80%. The molecule further showed an oxidation of retinal in series [4] of 51.6 pmol/h/mg. Moreover, in [5], the “oxidation of retinal to retinoic acid” value was 1.35 ± 0.4 pmol/h/mg. Further, in the series with psoriasis plaques (0.1% and 0.05% preparations, initial pilot study), the “effect on psoriasis plaques” value is listed as “only a modest effect”. Moreover, the “effect on the action of UVA” value in the series with psoriasis plaques (0.1% and 0.05% preparations, psoriasis plaques) is “potentiating effect”. In the series with psoriasis plaques (1% preparation, daily, open application, 6 cases), the “results in the open series” value is “only one very good result was noted, with one good and four modest results”. Further, the “regression of the lesion score” value in the series on psoriasis plaques (1% preparation, daily, 3 of the 5 cases, from the first week) was “more than 50%”. For the same molecule, the “regression of the lesion score” value with psoriasis plaques (1% preparation, daily, one case (good result)) stood at 30%. Further, the “regression of the lesion score” value in the series with psoriasis plaques (1% preparation, daily, one case (modest result)) is recorded as 10%. Further, the “local reaction on the psoriasis plaque” value in the series with psoriasis plaques (in vivo) was “inflammation specifically localized on the psoriasis plaque”. The “subjects left with almost no sign of characteristic erythrosis of rosacea” value in the series on rosacea (after treatment for 3 months) stood at 70%. Moreover, the “cases with a substantial improvement in the rosacea” value in the series with rosacea (from the first month, 10 subjects) is listed as 6 of the 10. Further, the “biological effect on normal skin” value in the series with normal human skin [6] (0.1% and 0.05% preparations, topical, healthy volunteers) is listed as “better appearance of the skin”. In the series on normal human skin [6] (in vivo), the “cases in which an irritation arose” value was determined as 10%, the “irritation / dermatitis caused by the retinoids” value was “no irritation was noted”, the skin coloration induced result is “yellowish coloration” and the tolerability result is listed as “excellent”.

As to `CCN(CC)C(=S)SSC(=S)N(CC)CC` [disulfiram], the “effect on the production” value in [2] is “not affected”.

As to `CCO` [ethanol], the “effect on the production” value in series [2] is given as “not affected”.

The values are drawn from US5438073A, “Dermatological and/or cosmetological composition containing retinoids” (Pierre Fabre Cosmetique, priority 1991, dated 1995).
